From ChEMBL document CHEMBL1909046, “DrugMatrix in vitro pharmacology data”

Key:
Androgen receptor [1] = molecular target: T1, Androgen receptor (Rattus norvegicus, UniProt P15207); also: in other assays of this panel Not Active means under 50% inhibition at 10 µM
T1 sequence (P15207 whole entry): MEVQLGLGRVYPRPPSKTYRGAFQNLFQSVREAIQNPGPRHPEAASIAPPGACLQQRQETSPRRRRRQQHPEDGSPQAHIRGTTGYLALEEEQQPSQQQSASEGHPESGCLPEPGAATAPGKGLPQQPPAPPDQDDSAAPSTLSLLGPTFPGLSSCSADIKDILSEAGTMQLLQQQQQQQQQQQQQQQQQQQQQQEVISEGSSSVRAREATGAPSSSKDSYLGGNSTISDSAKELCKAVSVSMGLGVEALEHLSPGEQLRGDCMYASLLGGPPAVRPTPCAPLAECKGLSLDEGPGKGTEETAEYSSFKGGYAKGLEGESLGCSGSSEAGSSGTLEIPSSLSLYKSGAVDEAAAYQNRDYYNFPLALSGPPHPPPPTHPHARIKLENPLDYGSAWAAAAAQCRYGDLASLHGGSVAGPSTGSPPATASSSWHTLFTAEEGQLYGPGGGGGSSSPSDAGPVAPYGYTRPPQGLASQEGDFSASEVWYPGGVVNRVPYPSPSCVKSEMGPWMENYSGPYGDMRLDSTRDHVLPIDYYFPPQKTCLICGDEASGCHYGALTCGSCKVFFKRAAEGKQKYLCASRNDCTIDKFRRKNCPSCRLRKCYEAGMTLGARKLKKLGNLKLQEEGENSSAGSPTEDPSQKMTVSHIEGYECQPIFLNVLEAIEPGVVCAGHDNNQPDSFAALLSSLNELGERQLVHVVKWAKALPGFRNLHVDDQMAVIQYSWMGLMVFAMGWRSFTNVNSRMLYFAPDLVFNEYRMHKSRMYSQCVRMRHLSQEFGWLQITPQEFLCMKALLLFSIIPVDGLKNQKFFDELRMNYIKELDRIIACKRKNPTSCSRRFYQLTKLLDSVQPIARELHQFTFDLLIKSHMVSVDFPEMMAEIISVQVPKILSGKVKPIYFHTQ

Glucocorticoid receptor [2] = molecular target: T2, Glucocorticoid receptor (Homo sapiens, UniProt P04150); conditions: hela s3; also: in other assays of this panel Not Active means under 50% inhibition at 10 µM
T2 sequence (P04150 whole entry): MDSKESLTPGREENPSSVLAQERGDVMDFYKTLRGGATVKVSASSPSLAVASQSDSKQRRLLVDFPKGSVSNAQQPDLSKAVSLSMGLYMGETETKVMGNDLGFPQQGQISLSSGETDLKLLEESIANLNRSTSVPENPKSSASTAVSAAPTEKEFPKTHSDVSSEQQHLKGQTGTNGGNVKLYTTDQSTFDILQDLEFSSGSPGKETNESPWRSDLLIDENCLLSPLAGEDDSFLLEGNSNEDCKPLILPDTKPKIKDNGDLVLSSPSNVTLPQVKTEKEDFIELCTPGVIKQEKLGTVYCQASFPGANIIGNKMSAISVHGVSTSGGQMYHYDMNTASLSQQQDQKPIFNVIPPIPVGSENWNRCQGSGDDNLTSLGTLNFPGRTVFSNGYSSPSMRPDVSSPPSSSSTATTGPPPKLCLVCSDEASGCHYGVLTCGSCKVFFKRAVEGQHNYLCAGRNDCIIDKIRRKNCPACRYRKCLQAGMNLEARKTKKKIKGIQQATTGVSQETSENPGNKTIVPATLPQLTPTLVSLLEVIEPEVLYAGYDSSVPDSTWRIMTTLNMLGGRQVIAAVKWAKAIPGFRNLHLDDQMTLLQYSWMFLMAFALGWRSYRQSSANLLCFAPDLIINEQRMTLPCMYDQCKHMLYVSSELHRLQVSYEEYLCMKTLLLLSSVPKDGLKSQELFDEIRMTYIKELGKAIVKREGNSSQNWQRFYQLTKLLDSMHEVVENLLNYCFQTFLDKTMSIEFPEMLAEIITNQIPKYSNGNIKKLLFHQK

Cytochrome P450 2C19 = Cytochrome P450 2C19 (Homo sapiens, UniProt P33261); also: in other assays of this panel Not Active means under 50% inhibition at 10 µM
Cytochrome P450 2C19, sequence (P33261 whole entry): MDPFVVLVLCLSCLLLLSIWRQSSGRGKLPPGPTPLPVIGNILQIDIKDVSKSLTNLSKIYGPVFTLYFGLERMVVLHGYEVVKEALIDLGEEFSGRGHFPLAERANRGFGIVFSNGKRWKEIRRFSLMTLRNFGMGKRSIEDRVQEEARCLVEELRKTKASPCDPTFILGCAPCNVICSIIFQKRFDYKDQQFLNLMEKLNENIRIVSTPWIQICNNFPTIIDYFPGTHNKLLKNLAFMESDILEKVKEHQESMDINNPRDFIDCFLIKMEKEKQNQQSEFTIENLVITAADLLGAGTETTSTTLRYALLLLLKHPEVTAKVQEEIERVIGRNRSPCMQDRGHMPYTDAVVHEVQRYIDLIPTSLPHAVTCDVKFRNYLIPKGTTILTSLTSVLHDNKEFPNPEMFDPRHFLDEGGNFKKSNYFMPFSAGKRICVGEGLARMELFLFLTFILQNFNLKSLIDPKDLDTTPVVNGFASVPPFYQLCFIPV

D(4) dopamine receptor = molecular target: T3, D(4) dopamine receptor (Homo sapiens, UniProt P21917); test: DRUGMATRIX: Dopamine D4.2 radioligand binding (ligand: [3H] Spiperone); assay type: cell membranes, Membrane; conditions: cho-k1; Not Active = under 50% inhibition at 10 µM
T3 sequence (P21917 whole entry): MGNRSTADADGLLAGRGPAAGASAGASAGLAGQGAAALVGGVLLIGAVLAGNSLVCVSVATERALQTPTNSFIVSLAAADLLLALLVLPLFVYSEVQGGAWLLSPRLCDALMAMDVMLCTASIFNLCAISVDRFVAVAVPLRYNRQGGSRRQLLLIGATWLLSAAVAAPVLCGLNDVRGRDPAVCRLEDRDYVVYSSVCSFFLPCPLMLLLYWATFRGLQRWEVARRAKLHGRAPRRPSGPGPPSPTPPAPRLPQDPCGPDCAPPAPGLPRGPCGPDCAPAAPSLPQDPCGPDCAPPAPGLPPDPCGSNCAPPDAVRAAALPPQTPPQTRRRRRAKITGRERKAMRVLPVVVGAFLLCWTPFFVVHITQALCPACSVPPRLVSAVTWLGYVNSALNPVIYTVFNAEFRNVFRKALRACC

Cytochrome P450 2C9 = Cytochrome P450 2C9 (Homo sapiens, UniProt P11712); also: in other assays of this panel Not Active means under 50% inhibition at 10 µM
Cytochrome P450 2C9, sequence (P11712 whole entry): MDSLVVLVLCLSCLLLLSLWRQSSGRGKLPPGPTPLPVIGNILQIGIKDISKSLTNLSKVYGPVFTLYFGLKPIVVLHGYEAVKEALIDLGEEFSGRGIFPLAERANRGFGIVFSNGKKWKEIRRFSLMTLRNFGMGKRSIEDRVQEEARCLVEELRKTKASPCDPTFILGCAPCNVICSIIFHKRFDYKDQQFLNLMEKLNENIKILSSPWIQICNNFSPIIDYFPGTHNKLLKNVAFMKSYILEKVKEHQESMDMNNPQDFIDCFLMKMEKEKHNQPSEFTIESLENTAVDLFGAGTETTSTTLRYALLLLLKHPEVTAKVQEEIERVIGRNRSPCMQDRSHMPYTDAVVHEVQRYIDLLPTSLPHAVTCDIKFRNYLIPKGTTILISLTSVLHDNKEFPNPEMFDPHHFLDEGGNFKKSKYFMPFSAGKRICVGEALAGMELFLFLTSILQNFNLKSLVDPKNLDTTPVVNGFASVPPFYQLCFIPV

[3] = molecular target: Tyrosine-protein kinase Fyn (Homo sapiens, UniProt P06241); test: biochemical; assay type: cell-based, Insect cells
Tyrosine-protein kinase Fyn, sequence (P06241 whole entry): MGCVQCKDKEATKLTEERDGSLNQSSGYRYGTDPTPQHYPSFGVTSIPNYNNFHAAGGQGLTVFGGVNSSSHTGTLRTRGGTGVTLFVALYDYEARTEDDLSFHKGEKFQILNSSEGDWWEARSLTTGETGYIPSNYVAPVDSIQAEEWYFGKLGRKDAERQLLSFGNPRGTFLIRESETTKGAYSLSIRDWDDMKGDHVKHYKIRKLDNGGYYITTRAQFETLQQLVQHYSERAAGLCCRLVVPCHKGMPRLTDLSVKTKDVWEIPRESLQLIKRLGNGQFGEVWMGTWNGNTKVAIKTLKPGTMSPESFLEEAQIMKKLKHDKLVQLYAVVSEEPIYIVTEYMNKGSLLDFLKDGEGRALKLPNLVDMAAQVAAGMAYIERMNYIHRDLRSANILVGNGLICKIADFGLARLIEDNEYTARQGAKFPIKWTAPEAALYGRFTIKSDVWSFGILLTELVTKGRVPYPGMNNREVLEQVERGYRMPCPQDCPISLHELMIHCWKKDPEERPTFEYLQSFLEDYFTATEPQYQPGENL

Cytochrome P450 2D6 = Cytochrome P450 2D6 (Homo sapiens, UniProt P10635); also: in other assays of this panel Not Active means under 50% inhibition at 10 µM
Cytochrome P450 2D6, sequence (P10635 whole entry): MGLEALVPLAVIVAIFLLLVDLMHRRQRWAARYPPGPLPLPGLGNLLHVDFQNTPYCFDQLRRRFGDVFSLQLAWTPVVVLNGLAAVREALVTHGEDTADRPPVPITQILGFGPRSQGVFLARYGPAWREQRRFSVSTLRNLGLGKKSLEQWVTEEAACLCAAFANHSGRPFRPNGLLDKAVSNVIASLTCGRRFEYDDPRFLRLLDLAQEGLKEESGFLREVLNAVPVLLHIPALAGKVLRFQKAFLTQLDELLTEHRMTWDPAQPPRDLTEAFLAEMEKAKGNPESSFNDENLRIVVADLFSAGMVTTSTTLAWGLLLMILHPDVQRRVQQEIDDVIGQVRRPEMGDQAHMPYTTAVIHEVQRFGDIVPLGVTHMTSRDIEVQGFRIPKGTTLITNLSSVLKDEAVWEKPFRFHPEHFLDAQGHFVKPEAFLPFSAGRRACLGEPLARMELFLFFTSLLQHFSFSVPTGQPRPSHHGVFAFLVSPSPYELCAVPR

Androgen receptor [4] = molecular target: T1, Androgen receptor; remark: listed apart in the source
Glucocorticoid receptor [5] = molecular target: T2, Glucocorticoid receptor; test: biochemical

| Compound | IC50 (Androgen receptor [1]) | IC50 (Glucocorticoid receptor [2]) | IC50 (D(4) dopamine receptor) | IC50 ([3]; insect cells) | further results |
| --- | --- | --- | --- | --- | --- |
| COc1ccccc1C(=O)N1CCC(Cc2ccccc2)CC1 | Not Active | Not Active | Not Active | Not Active | IC50 (Cytochrome P450 2C19): 800 nM; IC50 (Cytochrome P450 2C9): 2000 nM |
| Cc1ccccc1C(=O)N1CCC(Cc2ccccc2)CC1 | Not Active | Not Active | Not Active | Not Active | IC50 (Cytochrome P450 2C19): 600 nM; IC50 (Cytochrome P450 2C9): 1000 nM |
| N=C(Nc1ccccc1)Nc1ccccc1 |  | Not Active | Not Active | Not Active | IC50 (Cytochrome P450 2D6): 3440 nM |
| S=C=Nc1cccc2ccccc12 [1-NAPHTHYLISOTHIOCYANATE] |  |  | Not Active | Not Active | IC50 (Androgen receptor [4]): 25500 nM; Ki (Androgen receptor [4]): 17000 nM; IC50 (Glucocorticoid receptor [5]): 15400 nM; Ki (Glucocorticoid receptor [5]): 7000 nM |
| C[C@](O)(CS(=O)(=O)c1ccc(F)cc1)C(=O)Nc1ccc(C#N)c(C(F)(F)F)c1 [(R)-BICALUTAMIDE] |  | Not Active | Not Active | Not Active | IC50 (Cytochrome P450 2C19): 1000 nM |
| CC(=O)Nc1ccc(O)cc1 [ACETAMINOPHEN] | Not Active |  | Not Active | Not Active |  |
| COc1cc2c(c3oc(=O)c4c(c13)CCC4=O)[C@@H]1C=CO[C@@H]1O2 [AFLATOXIN] | Not Active | Not Active | Not Active | Not Active | Ki (Androgen receptor [1]): Not Active; Ki (Glucocorticoid receptor [2]): Not Active; Ki (D(4) dopamine receptor): Not Active; Ki ([3]; insect cells): Not Active |
| Cc1cc(=O)n(-c2ccccc2)n1C [ANTIPYRINE] | Not Active |  | Not Active | Not Active |  |
| CCCCN1CCCCC1C(=O)Nc1c(C)cccc1C.Cl (stereo unspecified) [BUPIVACAINE HYDROCHLORIDE] | Not Active |  | Not Active | Not Active | IC50 (Cytochrome P450 2D6): 400 nM |
| O=C1CC2(CCCC2)CC(=O)N1CCCCN1CCN(c2ncccn2)CC1 [BUSPIRONE] | Not Active |  | Not Active | Not Active |  |
| O=NN(CCCl)C(=O)NCCCl [CARMUSTINE] | Not Active | Not Active | Not Active | Not Active |  |
| CC(=O)OCC(=O)[C@@]1(O)CC[C@H]2[C@@H]3CCC4=CC(=O)CC[C@]4(C)[C@H]3C(=O)C[C@@]21C [CORTISONE ACETATE] | Not Active |  | Not Active | Not Active |  |
| O=C(O)Cc1ccccc1Nc1c(Cl)cccc1Cl [DICLOFENAC] | Not Active |  | Not Active | Not Active |  |
| C[C@H]1O[C@@H](O[C@H]2[C@@H](O)C[C@H](O[C@H]3[C@@H](O)C[C@H](O[C@H]4CC[C@@]5(C)[C@H](CC[C@@H]6[C@@H]5CC[C@]5(C)[C@@H](C7=CC(=O)OC7)CC[C@]65O)C4)O[C@@H]3C)O[C@@H]2C)C[C@H](O)[C@@H]1O [DIGITOXIN] | Not Active | Not Active | Not Active | Not Active |  |
| CCN1CC(CCN2CCOCC2)C(c2ccccc2)(c2ccccc2)C1=O (stereo unspecified) [DOXAPRAM] |  | Not Active | Not Active | Not Active | IC50 (Cytochrome P450 2D6): 100 nM |
| Cn1c(=O)c2c(ncn2CC2OCCO2)n(C)c1=O [DOXOFYLLINE] | Not Active |  | Not Active | Not Active |  |
| C[C@]12CC[C@@H]3c4ccc(OC(=O)c5ccccc5)cc4CC[C@H]3[C@@H]1CC[C@@H]2O [ESTRADIOL BENZOATE] |  |  | Not Active |  | IC50 (Androgen receptor [4]): 10 nM; Ki (Androgen receptor [4]): 6.98 nM; IC50 ([3]; read-out: IC50): 23000 nM; IC50 (Glucocorticoid receptor [5]): 5070 nM; Ki (Glucocorticoid receptor [5]): 2310 nM |
| CC1(C)O[C@@H]2C[C@H]3[C@@H]4C[C@H](F)C5=CC(=O)C=C[C@]5(C)[C@H]4[C@@H](O)C[C@]3(C)[C@]2(C(=O)CO)O1 [FLUNISOLIDE] |  |  | Not Active | Not Active | IC50 (Glucocorticoid receptor [5]): 5.33 nM; Ki (Glucocorticoid receptor [5]): 2.42 nM |
| CC1(C)O[C@@H]2C[C@H]3[C@@H]4C[C@H](F)C5=CC(=O)C=C[C@]5(C)[C@@]4(F)[C@@H](O)C[C@]3(C)[C@]2(C(=O)CO)O1 [FLUOCINOLONE ACETONIDE] |  |  | Not Active | Not Active | IC50 (Glucocorticoid receptor [5]): 3.13 nM; Ki (Glucocorticoid receptor [5]): 1.42 nM |
| CC1(C)O[C@@H]2C[C@H]3[C@@H]4C[C@H](F)C5=CC(=O)CC[C@]5(C)[C@H]4[C@@H](O)C[C@]3(C)[C@]2(C(=O)CO)O1 [FLURANDRENOLIDE] |  |  | Not Active | Not Active | IC50 (Glucocorticoid receptor [5]): 4.45 nM; Ki (Glucocorticoid receptor [5]): 2.02 nM |
| CN(C)c1ccc(C(=C2C=CC(=[N+](C)C)C=C2)c2ccc(N(C)C)cc2)cc1.[Cl-] [GENTIAN VIOLET] |  | Not Active | Not Active |  | IC50 (Androgen receptor [4]): 5570 nM; Ki (Androgen receptor [4]): 3710 nM; IC50 (Cytochrome P450 2D6): 824 nM; IC50 ([3]; read-out: IC50): 2150 nM |
| COc1ccc2c(c1)c(CC(=O)O)c(C)n2C(=O)c1ccc(Cl)cc1 [INDOMETHACIN] | Not Active | Not Active | Not Active | Not Active |  |
| Oc1ccc(OCc2ccccc2)cc1 [MONOBENZONE] | Not Active | Not Active | Not Active | Not Active |  |
| CC(C)(Oc1ccc(C2CCCc3ccccc32)cc1)C(=O)O (stereo unspecified) [NAFENOPIN] | Not Active | Not Active | Not Active | Not Active |  |
| CCOC(=O)C1=C(C)NC(C)=C(C(=O)OC)C1c1cccc([N+](=O)[O-])c1 (stereo unspecified) [NITRENDIPINE] |  |  | Not Active | Not Active | IC50 (Cytochrome P450 2C19): 3000 nM; IC50 (Cytochrome P450 2C9): 300 nM |
| C#C[C@]1(OC(C)=O)CC[C@H]2[C@@H]3CCC4=CC(=O)CC[C@@H]4[C@H]3CC[C@@]21C [NORETHINDRONE ACETATE] |  |  | Not Active | Not Active | IC50 (Cytochrome P450 2C19): 800 nM; IC50 (Glucocorticoid receptor [5]): 646 nM; Ki (Glucocorticoid receptor [5]): 293 nM |
| OC(CCN1CCCCC1)(c1ccccc1)C1CCCCC1 (stereo unspecified) [TRIHEXYPHENIDYL] |  |  | Not Active | Not Active | IC50 (Cytochrome P450 2D6): 2450 nM |
| CCC1=C[C@@H]2CN(C1)Cc1c([nH]c3ccccc13)[C@@](C(=O)OC)(c1cc3c(cc1OC)N(C)[C@H]1[C@@](O)(C(=O)OC)[C@H](OC(C)=O)[C@]4(CC)C=CCN5CC[C@]31[C@@H]54)C2 [VINORELBINE] |  | Not Active | Not Active | Not Active |  |
| CADMIUM DICHLORIDE | Not Active | Not Active | Not Active |  | Ki (Androgen receptor [1]): Not Active; Ki (Glucocorticoid receptor [2]): Not Active; Ki (D(4) dopamine receptor): Not Active; IC50 ([3]; insect cells, read-out: IC50): 137 nM |
